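Test compounds were applied to cells in 96-well plates for 48 hours at 5 doses. TGI marks complete inhibition of growth.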
Experiments:
Assay in all cases: NCI anticancer screen, dose series, 48 h
[1] = test system: 786-0 renal
[2] = test system: A498 renal
[3] = test system: A549 NSCLC
[4] = test system: ACHN renal
[5] = test system: BT-549 breast
[6] = test system: CAKI-1 renal
[7] = test system: CCRF-CEM leukemia
[8] = test system: COLO 205 colon
[9] = test system: DU-145 prostate
[10] = test system: EKVX NSCLC
[11] = test system: HCT-116 colon
[12] = test system: HCT-15 colon
[13] = test system: HL-60(TB) leukemia
[14] = test system: HOP-62 NSCLC
[15] = test system: HOP-92 NSCLC
[16] = test system: HS 578T breast
[17] = test system: HT29 colon
[18] = test system: IGROV1 ovarian
[19] = test system: K-562 leukemia
[20] = test system: KM12 colon
[21] = test system: LOX IMVI melanoma
[22] = test system: M14 melanoma
[23] = test system: MALME-3M melanoma
[24] = test system: MCF7 breast
[25] = test system: MDA-MB-231 breast
[26] = test system: MDA-MB-435
[27] = test system: MDA-N
[28] = test system: MOLT-4 leukemia
[29] = test system: NCI-H226 lung
[30] = test system: NCI-H460 lung
[31] = test system: NCI-H522 lung
[32] = test system: NCI/ADR-RES ovarian
[33] = test system: OVCAR-3 ovarian
[34] = test system: OVCAR-4 ovarian
[35] = test system: OVCAR-5 ovarian
[36] = test system: OVCAR-8 ovarian
[37] = test system: PC-3 prostate
[38] = test system: RPMI-8226 leukemia
[39] = test system: RXF 393 renal
[40] = test system: SF-268 CNS
[41] = test system: SF-295 CNS
[42] = test system: SF-539 CNS
[43] = test system: SK-MEL-2 melanoma
[44] = test system: SK-MEL-28 melanoma
[45] = test system: SK-MEL-5 melanoma
[46] = test system: SK-OV-3 ovarian
[47] = test system: SN12C renal
[48] = test system: SNB-19 CNS
[49] = test system: SNB-75 CNS
[50] = test system: SR leukemia
[51] = test system: SW-620 colon
[52] = test system: T-47D breast
[53] = test system: TK-10 renal
[54] = test system: U251 CNS
[55] = test system: UACC-257 melanoma
[56] = test system: UACC-62 melanoma
[57] = test system: UO-31 renal

Measured: TGI

COc1nc2ncc([C@@H](O)[C@H](O)CO)nc2c(=O)[nH]1
> 100 µM: all assays above
